According to patent US20190382396A1, “SALTS OF BICYCLO[1.1.1]PENTANE INHIBITORS OF DUAL LEUCINE ZIPPER (DLK) KINASE FOR THE TREATMENT OF DISEASE” (Board of Regents, The University of Texas System, priority 2018, published 2019):
In brackets after ≈: the same amount, converted by molar mass. Read-outs that look alike come from different tables or passages of the source.

How the values were obtained:
Type in all cases: physicochemical
[1] = Dynamic vapor sorption (DVS), hygroscopicity
Experimental: Dynamic vapor sorption (“DVS”) was performed at 25° C., using approx 10-15 mg of sample and N2 gas at a flow rate of 200 mL/min, dm/dt=0.01% min, minimum dm/dt stability duration of 10 min, max equilibration time of 180 min, drying at 0% RH for 120 min, scanning from 0% RH to 90% RH to 0% RH with a step size of 10% RH.
Total cycling time varied, but in all cases was about 200-250 min.

[2] = Solubility of the Example 1 compound in organic solvents; conditions: thermodynamic from solid; for solubility at 2 h: 25 °C, RT; for solubility: 50° C.
Experimental: Solubility of the Example 1 compound in various organic solvents was determined by the following procedure. […] The mixture was stirred at 800 rpm at 25° C. for 2 hr. If the compound was not dissolved completely by this time, the temperature was then raised to 50° C. and stirring at 800 rpm was continued overnight. If a solid precipitate was present, the solid precipitate was then removed by centrifugation (14,000 RPM, 5 min) and dried under vacuum at 30° C. (Method I). If a solid precipitate was not present, the solvent was removed by evaporation under vacuum at 30° C. (Method II). In either case, the resulting material was evaluated by XRPD.

[3] = Solubility in physiologically relevant solutions (SGF, FaSSIF, FeSSIF); conditions: 25±0.5° C.; for solubility at 24 h: 25 °C, thermodynamic from solid
Experimental: Solubility of the free base 1 and the selected salts 8, 9, 10, and 11 in physiologically relevant solutions were examined. For each material, aliquots were added to 2 ml vials containing 500 uL of either SGF, FaSSIF, or FeSSIF, which were then sealed. The mixtures were kept shaking by thermomixer at 700 rpm, 25±0.5° C. for 24 h to facilitate the dissolution and then centrifuged by 96-well plates at 3000 rpm for 2 min. The filter liquors were diluted with diluents (ACN/water, 50/50) and analyzed by HPLC.

[4] = Stability (50° C., 40° C./75% RH, light; 1 week); conditions: for XRPD change? / purity: bulk, 1 week
Experimental: The stability of the free base 1 and the selected salts 8, 9, 10, and 11 was evaluated. For each material, aliquots were set up at each of conditions (50° C., 40° C./75% RH, light) at given time points (initial and 1 week). PXRD diffractograms of the hydrogen fumarate salt 11 is shown in FIG. 17, with trace (a) showing the initial salt, trace (b) showing the salt after light treatment, trace (c) showing the salt after storage at 40° C. and 75% relative humidity for 1 week, and (d) showing the salt after storage at 50° C. for 1 week.

[5] = Thermogravimetric analysis / DSC weight loss; conditions: <120° C.
Experimental: Differential scanning calorimetry (“DSC”) was performed with a TA Q2000 instrument, using approx 1 mg of sample in a crimped Al pan, heating from room temperature to 300° C. at a rate of 10° C./min.
Thermogravimetric analysis (“TGA”) was performed with a TA Q5000 instrument, using approx 2-5 mg of sample in an open Pt pan, heating from room temperature to 300° C. at a rate of 10° C./min.

[6] = aqueous with cosolvent or surfactant or cyclodextrin, 1/1 (v/v) Acetone/H2O
[7] = aqueous with cosolvent or surfactant or cyclodextrin, 1/1 (v/v) EtOH/H2O
[8] = organic solvent or mixture, ACN
[9] = organic solvent or mixture, EtOH
[10] = organic solvent or mixture, Heptane
[11] = organic solvent or mixture, MTBE
[12] = organic solvent or mixture, Toluene

CC(C)c1nc(-c2cnc(N)c(OC(F)(F)F)c2)cn1C12CC(N3CCOCC3)(C1)C2 [Example 1, 5-(2-isopropyl-1-(3-morpholinobicyclo[1.1.1]pentan-1-yl)-1H-imidazol-4-yl)-3-(trifluoromethoxy)pyridin-2-amine]
Hygroscopicity (0-40% RH) ([1]; DVS, 25° C., 0-40% RH): 0.11%
Hygroscopicity (0-90% RH) ([1]; DVS, 25° C., 0-90% RH): 2.44%
Hygroscopicity; form change ([1]; form change after DVS): no change
solubility at 2 h [2, 6]: < 50 mg/mL
solubility at 2 h [2, 7]: < 50 mg/mL
solubility at 2 h [2, 8]: < 50 mg/mL
solubility at 2 h ([2]; organic solvent or mixture, Acetone): > 50 mg/mL
solubility at 2 h ([2]; organic solvent or mixture, DCM): > 50 mg/mL
solubility at 2 h ([2]; organic solvent or mixture, DMF): > 50 mg/mL
solubility at 2 h ([2]; organic solvent or mixture, DMSO): > 50 mg/mL
solubility at 2 h ([2]; organic solvent or mixture, Dioxane): > 50 mg/mL
solubility at 2 h ([2]; organic solvent or mixture, EtOAc): > 50 mg/mL
solubility at 2 h [2, 9]: < 50 mg/mL
solubility at 2 h [2, 10]: < 50 mg/mL
solubility at 2 h ([2]; organic solvent or mixture, IPA): > 50 mg/mL
solubility at 2 h ([2]; organic solvent or mixture, MEK): > 50 mg/mL
solubility at 2 h [2, 11]: < 50 mg/mL
solubility at 2 h ([2]; organic solvent or mixture, MeOH): > 50 mg/mL
solubility at 2 h ([2]; organic solvent or mixture, THF): > 50 mg/mL
solubility at 2 h [2, 12]: < 50 mg/mL
solubility [2, 6]: < 50 mg/mL
solubility [2, 7]: < 50 mg/mL
solubility [2, 8]: > 50 mg/mL
solubility [2, 9]: > 50 mg/mL
solubility [2, 10]: < 50 mg/mL
solubility [2, 11]: < 50 mg/mL
solubility [2, 12]: < 50 mg/mL
solubility at 2 h ([2]; water, H2O): < 50 mg/mL
solubility ([2]; water, H2O): < 50 mg/mL
solubility at 24 h ([3]; simulated gastric fluid, SGF, read-out: Solubility SGF Conc): 4.56 mg/mL (≈ 10.4 mM)
solubility at 24 h ([3]; FaSSIF, read-out: Solubility FaSSIF Conc): 0.0713 mg/mL (≈ 0.163 mM)
solubility at 24 h ([3]; FeSSIF, read-out: Solubility FeSSIF Conc): 0.473 mg/mL (≈ 1.08 mM)
FaSSIF pH after 24 h ([3]; FaSSIF): 6.48
FeSSIF pH after 24 h ([3]; FeSSIF): 5.00
SGF pH after 24 h ([3]; SGF): 3.83
XRPD change? ([4]; 40° C., 75% RH): yes
purity ([4]; 40° C., 75% RH): 99.66%
XRPD change? ([4]; 50° C.): yes
purity ([4]; 50° C.): 99.41%
initial purity ([4]; initial (before storage)): 99.59%
XRPD change? ([4]; light): yes (1)
purity ([4]; light): 96.61%
weight loss (TGA, %) [5]: 0.29% (<120° C.)
